Experimental data published in patent US8853193B2, “Thienopyrimidines containing a substituted alkyl group for pharmaceutical compositions” (Boehringer Ingelheim International GmbH, priority 2010, dated 2014).
Structures can show the parent of a compound that is named as a salt.

target: human Mnk2a (Homo sapiens (Human), UniProt Q9HBH9); experiment: Mnk2a in vitro kinase assay (indirect competitive fluorescence polarization); format: biochemical; details: pre-activated GST-Mnk2a 2.5 nM, 20 μM ATP, 30 μM substrate peptide; read-out: MNK2 IC50
Sequence (Q9HBH9 whole entry): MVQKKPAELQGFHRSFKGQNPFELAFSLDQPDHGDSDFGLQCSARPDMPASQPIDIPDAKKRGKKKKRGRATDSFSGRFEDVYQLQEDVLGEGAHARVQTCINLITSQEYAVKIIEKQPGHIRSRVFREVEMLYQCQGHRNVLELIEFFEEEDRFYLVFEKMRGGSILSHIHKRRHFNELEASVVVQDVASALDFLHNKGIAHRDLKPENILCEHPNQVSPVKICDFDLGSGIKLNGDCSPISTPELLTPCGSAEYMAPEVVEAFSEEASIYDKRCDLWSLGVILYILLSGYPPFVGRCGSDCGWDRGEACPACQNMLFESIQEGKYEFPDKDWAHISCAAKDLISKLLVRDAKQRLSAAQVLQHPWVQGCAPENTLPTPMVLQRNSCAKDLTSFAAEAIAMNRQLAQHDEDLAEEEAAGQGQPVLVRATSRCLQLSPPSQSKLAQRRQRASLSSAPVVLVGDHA
Description: Inhibitory potency of compounds against Mnk1, Mnk2a and other kinases was assessed with assays based on a format known to those skilled in the art as the indirect (competitive) fluorescence polarization. The assay detection system comprises a small fluorophore-labeled phospho-peptide (termed ligand) bound to a phospho-specific antibody. The product generated by the kinase reaction competes with the ligand for antibody binding. Based on the larger molecular volume of the bound ligand, which results in a lower rotation rate in solution, its emitted light has a higher degree of polarization than the one from the free ligand.
In brief, the open reading frames of human Mnk1 and Mnk2a were amplified from cDNA using the forward/reverse primer pairs
(utilized restriction sites underlined), respectively, and cloned into the BamHI and SalI sites of the vector pGEX-4T1 (Amersham, Sweden, cat. no. 27-4580-01). These constructs allow prokaryotic expression of Mnk1 or Mnk2a as fusion protein with a N-terminal glutathione S-transferase (GST) tag, referred to as GST-Mnk1 or GST-Mnk2a. The following expression and purification procedure was identical for GST-Mnk1 and GST-Mnk2a, referring in general to GST-Mnk, when not distinguishing between the two isoforms. Expression of GST-Mnk was in E. coli BL21 (Merck Biosciences, Germany, cat. no. 69449). Cells were grown in LB-Bouillon (Merck, Germany, cat. no. 1.10285) supplemented with 100 μg/ml ampicillin (Sigma, Germany, cat. no. A9518) at 37° C. […] Cells harvested by centrifugation were resuspended in 10 ml lysis buffer (50 mM tris(hydroxymethyl)aminomethane hydrochloride (Tris/HCl, Sigma, Germany, cat. no. T5941) pH 7.5, 300 mM sodium chloride (NaCl, Sigma, Germany, cat. no. S7653), 5% (w/v) glycerol (Sigma, Germany, cat. no. G5516), 3 mM DTT dithiotreitol (DTT, Sigma, Germany, cat. no. D9779)) per gram wet weight cell pellet. Lysates were prepared by disruption of cells with a sonifier and subsequent clearing by centrifugation at 38000 g for 45 min at 4° C.
The lysate was applied to a GSTPrep FF 16/10 column (Amersham, Sweden, cat. no. 17-5234-01) equilibrated with lysis buffer. Removal of unbound material was with 3 column volumes (CV) lysis buffer. Elution was with 2 CV of elution buffer (50 mM Tris/HCl pH 7.5, 300 mM NaCl, 5% (w/v) glycerol, 20 mM glutathione (Sigma, Germany, cat. no. G4251)). Peak fractions were pooled and the protein transferred into storage buffer (50 mM Tris/HCl pH 7.5, 200 mM NaCl, 0.1 mM ethylene glycol[…] bis(2-aminoethylether)-N,N,N′,N′-tetraacetic acid (EGTA, Aldrich, Germany, cat. no. 23, 453-2), 1 mM DTT, 10% (w/v) glycerol, 0.5 M sucrose (Sigma, Germany, cat. no. S0389) by gel filtration on a PD10 desalting column (Amersham, Sweden, cat. no. 17-0851-01). Aliquots were shock frozen in liquid nitrogen and stored at −80° C.
Activation of Mnk1 and Mnk2a was at a concentration of 2.5 μM of either purified GST-Mnk1 or GST-Mnk2a by incubation with 150 nM pre-activated NHis-ERK2 (see ERK2 assay for preparation) and 50 μM adenosine triphosphate (ATP, Sigma, cat. no. A2699) in a buffer comprising 20 mM N-(2-hydroxyethyl)piperazine-N′-(2-ethanesulfonic acid) (HEPES, Fluka, Germany, cat. no 54459)/potassium hydroxide (KOH, Roth, Germany, cat. no 6751.1) pH 7.4, 10 mM magnesium chloride (MgCl2, Sigma, Germany, cat. no. M2670), 0.25 mM DTT, 0.05% (w/v) polyoxyethylene 20 stearylether (Brij 78, Sigma, Germany, cat. no. P4019) (HMDB buffer) for 45 min at 30° C. After the incubation, the preparation was aliquoted into single-use samples, shock frozen in liquid nitrogen, stored at −80° C. and utilized for Mnk1 or Mnk2a kinase assays as detailed below.
The serine residue phosphorylated by Mnk kinases is underlined.

IC50 [nM]	SMILES
12	Cc1c(C(=O)NCCCN2CCCC2)sc2ncnc(Nc3ccc(F)cc3OC(C)CC(F)(F)F)c12 (stereo not shown) [Compound 32-42]
12	Cc1c(C(=O)NCCCN2CCCC2)sc2ncnc(Nc3ccc(C#N)cc3OC(CF)CF)c12 [Compound 48, 4-[4-Cyano-2-(2-fluoro-1-fluoromethyl-ethoxy)-phenylamino]-5-methyl-thieno[2,3-d]pyrimidine-6-carboxylic acid (3-pyrrolidin-1-yl-propyl)-amide]
78	COC(=O)c1sc2ncnc(Nc3ccc(F)cc3OC(CF)CF)c2c1C [Compound 23-1, Methyl 4-(2-(1,3-difluoropropan-2-yloxy)-4-fluorophenylamino)-5-methyl-thieno[2,3-d]pyrimidine-6-carboxylate]
25	Cc1c(C(=O)NC2CCN(C)CC2)sc2ncnc(Nc3ccc(F)cc3OC(C)CC(F)(F)F)c12 (stereo not shown) [Compound 32-41]
12	CNC(=O)c1sc2ncnc(Nc3cccnc3OC(C)C(F)(F)F)c2c1C (stereo not shown) [Compound 21-6, N-Methyl-5-methyl-4-(2-(1,1,1-trifluoro-propan-2-yloxy)-pyridin-3-yl-amino)thieno[2,3-d]pyrimidine-6-N-methylcarboxamide]
55	Cc1c(C(=O)N[C@H]2C[C@@H]2N)sc2ncnc(Nc3cccnc3OC(C)C)c12 [Compound 36-6, N-((1S,2S)-2-Aminocyclopropyl)-4-(2-isopropoxypyridin-3-ylamino)-5-methylthieno[2,3-d]pyrimidine-6-carboxamide]
64	Cc1c(C(N)=O)sc2ncnc(Nc3ccc(F)cc3OC(C)CNCCC(F)(F)F)c12 (stereo not shown) [Compound 8-2]
7	Cc1c(C(=O)NCCCN2CCCC2)sc2ncnc(Nc3ccc(F)cc3OC(CF)CF)c12 [Compound 23-10, 4-(2-(1,3-difluoro-propan-2-yloxy)-4-fluorophenylamino)-5-methyl-N-(3-(pyrrolidin-1-yl)propyl)thieno[2,3-d]pyrimidine-6-carboxamide]
110	Cc1c(C(=O)NCCO)sc2ncnc(Nc3ccc(F)cc3OC(C)C(=O)NCCCN)c12 (stereo not shown) [Compound 57, 4-{2-[1-(3-Amino-propylcarbamoyl)-ethoxy]-4-fluoro-phenylamino}-5-methyl-thieno[2,3-d]pyrimidine-6-carboxylic acid (2-hydroxy-ethyl)-amide]
47	Cc1c(C(=O)NCCCN(C)C)sc2ncnc(Nc3cccnc3OCC3(CC#N)CC3)c12 [Compound 33, 4-(2-((1-(Cyanomethyl)cyclopropyl)methoxy)pyridin-3-ylamino)-N-(3-(dimethylamino)propyl)-5-methylthieno[2,3-d]pyrimidine-6-carboxamide hydrochloride]
30	Cc1c(C(=O)NCCO)sc2ncnc(Nc3ccc(F)cc3OCC(F)F)c12 [Compound 32-18]
294	Cc1c(C(=O)NCCCN(C)C)sc2ncnc(Nc3ccc(F)cc3OC(C)CNC(=O)OC(C)(C)C)c12 (stereo not shown) [Compound 1-4, tert-Butyl 2-(2-(6-(3-(dimethymino)propyl-carbamoyl)-5-methyl-thieno[2,3-d]pyrimidin-4-ylamino)-5-fluoro-phenoxy)propyl-carbamate]
20	Cc1c(C(N)=O)sc2ncnc(Nc3cccnc3OC(C)CCNS(C)(=O)=O)c12 (stereo not shown) [Compound 45, 4-[2-(3-Methanesulfonylamino-1-methyl-propoxy)-pyridin-3-ylamino]-5-methyl-thieno[2,3-d]pyrimidine-6-carboxylic acid amide]
77	CCNC(=O)C(C)Oc1cc(F)ccc1Nc1ncnc2sc(C(=O)OC)c(C)c12 (stereo not shown) [Compound 61, 4-[2-(1-Ethylcarbamoyl-ethoxy)-4-fluoro-phenylamino}-5-methylthieno[2,3d]pyrimidine-6-carboxylic acid methyl ester]
19	CCNC(=O)C(C)Oc1cc(F)ccc1Nc1ncnc2sc(C(=O)O)c(C)c12 (stereo not shown) [Compound 39, 4-[2-(1-Ethylcarbamoyl-ethoxy)-4-fluoro-phenylamino]-5-methyl-thieno[2,3-d]pyrimidine-6-carboxylic acid]
5	Cc1c(C(=O)O)sc2ncnc(Nc3ccc(F)cc3OC(C)CF)c12 (stereo not shown) [Compound 32.7]
24	Cc1c(C(=O)O)sc2ncnc(Nc3cccnc3OC(C)CCNS(C)(=O)=O)c12 (stereo not shown) [Compound 44, 4-[2-(3-Methanesulfonylamino-1-methyl-propoxy)-pyridin-3-ylamino]-5-methyl-thieno[2,3-d]pyrimidine-6-carboxylic acid]
73	Cc1c(C(=O)NCCCN(C)C)sc2ncnc(Nc3cccnc3OCC(C)F)c12 (stereo not shown) [Compound 27-4, N-(3-(dimethylamino)-propyl)-4-(2-(2-fluoro-propoxy)pyridin-3-ylamino)-5-methyl-thieno[2,3-d]pyrimidine-6-carboxamide hydrochloride]
3	Cc1c(C(N)=O)sc2ncnc(Nc3ccc(F)cc3OC(C)CF)c12 (stereo not shown) [Compound 32-28]
63	Cc1c(C(=O)NCCN2CCCCC2)sc2ncnc(Nc3cccnc3OC(C)C)c12 [Compound 36-9, 4-(2-Isopropoxypyridin-3ylamino)-5-methyl-N-(2-(piperidin-1-yl)ethyl)thieno[2,3-d]pyrimidine-6-carboxamide]
11	Cc1c(C(=O)NC2CCN(C)CC2)sc2ncnc(Nc3ccc(F)cc3OC(C)CF)c12 (stereo not shown) [Compound 32-45]
78	COCC(C)Oc1ncccc1Nc1ncnc2sc(C(=O)NCCO)c(C)c12 (stereo not shown) [Compound 28-4, N-(2-hydroxy-ethyl)-4-(2-(1-methoxy-propan-2-yloxy)pyridin-3-ylamino)-5-methylthieno-[2,3-d]-pyrimidine-6-carbox-amide]
35	Cc1c(C(=O)NCCCN2CCCC2)sc2ncnc(Nc3cccnc3OC(C)C)c12 [Compound 36-1, 4-(2-Isopropoxypyridin-3-ylamino)-5-methyl-N-(3-(pyrrolidin-1-yl)propyl)thieno[2,3-d]pyrimidine-6-carboxamide]
29	Cc1c(C(=O)NCCCN(C)C)sc2ncnc(Nc3cccnc3OC(C)C)c12 [Compound 36, N-(3-(Dimethylamino)propyl)-4-(2-isopropoxypyridin-3-ylamino)-5-methyl-thieno[2,3-d]pyrimidine-6-carboxamide]
12	Cc1c(C(N)=O)sc2ncnc(Nc3cccnc3OC(C)C)c12 [Compound 35, 4-(2-Isopropoxypyridin-3-ylamino)-5-methyl-thieno[2,3-d]pyrimidine-6-carboxamide]
57	Cc1c(C(=O)NCCCN(C)C)sc2ncnc(Nc3cccnc3OCC(F)F)c12 [Compound 30-5, 4-(2-(2,2-difluoroethoxy)-pyridin-3-ylamino)-N-(3-(dimethyl-amino)propyl)-5-methyl-thieno[2,3-d]pyrimidine-6-carbox-amide hydro-chloride]
48	Cc1c(C(=O)NCCO)sc2ncnc(Nc3cccnc3OCC(F)F)c12 [Compound 30-4, 4-(2-(2,2-difluoroethoxy)-pyridin-3-ylamino)-N-(2-hydroxy-ethyl)-5-methylthieno [2,3-d]pyrimi-dine-6-carboxamide]
898	CCCCNC(=O)NCCC(C)Oc1cc(F)ccc1Nc1ncnc2sc(C(=O)OC)c(C)c12 (stereo not shown) [Compound 13-4, Methyl 4-(2-(4-(3-butylureido)-butan-2-yloxy)-4-fluorophenyl-amino)-5-methylthieno[2,3-d]pyrimidine-6-carboxylate]
